Values of other authors in publication PMC5488394, “30 YEARS OF THE MINERALOCORTICOID RECEPTOR: Mineralocorticoid receptor antagonists: 60 years of research and development” (The Journal of Endocrinology, 2017).
Read-outs that look alike come from different tables or passages of the source.

Key:
[1] = cited from earlier work; for mean half-life of spironolactone metabolite: healthy volunteers; for peak absolute plasma concentration / peak relative plasma concentration: steady state after oral 100 mg spironolactone per day
S810L MR mutant = test system: S810L MR mutant; design: method as in Geller et al. 2000, Amazit et al. 2015; details: ref Geller et al. 2000, Amazit et al. 2015; cited from earlier work
MR = test system: MR; design: method as in Losert et al. 1985; details: ref Losert et al. 1985; cited from earlier work
human MR = test system: human MR; design: method as in Arai et al. 2015a; details: ref Arai et al. 2015a; read-out: IC50, block of aldosterone-induced transcriptional activation of human MR; cited from earlier work
human plasma proteins = details: cited from earlier work
[2] = design: method as in de Gasparo et al. 1989; details: fludrocortisone challenge, healthy volunteers; 50 mg vs 25 mg spironolactone; ref de Gasparo et al. 1989; cited from earlier work
[3] = design: method as in Weinberger et al. 2002; details: 100 mg OD or 50 mg BID, hypertensive patients; ref Weinberger et al. 2002; cited from earlier work
[4] = cited from earlier work
[5] = test system: Dahl salt-sensitive hypertensive rats; design: method as in Arai et al. 2015b; details: ref Arai et al. 2015b, cited from earlier work; for cardiorenal protection: 100 mg/kg
[6] = radioactively labeled, rats; ref Kolkhof & Borden 2012; cited from earlier work
[7] = ref Pitt et al. 2003, cited from earlier work
[8] = test system: MR over other steroid hormone receptors; design: method as in Arai et al. 2015a; details: in vitro; ref Arai et al. 2015a; cited from earlier work
DOCA/salt-loading rats = details: cited from earlier work
[9] = cited from earlier work; remark: listed apart in the source
[10] = test system: mineralocorticoid-dependent sodium retention; details: cited from earlier work
[11] = test system: estrogen-primed immature rabbits; design: method as in Hertz & Tullner 1958; details: Clauberg assay; ref Hertz & Tullner 1958; cited from earlier work
[12] = design: method as in Liddle 1957; details: patient with congestive heart failure and patient with Addison's disease; ref Liddle 1957; cited from earlier work
urinary Na+/K+ ratio = test system: urinary Na+/K+ ratio; design: method as in Casals-Stenzel et al. 1984; details: rats, on average; ref Casals-Stenzel et al. 1984; cited from earlier work
[13] = test system: rat renal cytoplasmatic MR; design: method as in Casals-Stenzel et al. 1984; details: ref Casals-Stenzel et al. 1984; cited from earlier work
rat androgen receptor = test system: rat androgen receptor; design: method as in Laurent et al. 1983; details: ref Laurent et al. 1983; cited from earlier work
progesterone receptor = test system: progesterone receptor; design: method as in Laurent et al. 1983; details: estrogen-primed rabbit uterus; ref Laurent et al. 1983; cited from earlier work
aldosterone receptor = test system: aldosterone receptor; design: method as in Claire et al. 1979; details: ref Claire et al. 1979; cited from earlier work
dogs and monkeys = details: ref Lumb et al. 1978; cited from earlier work
[14] = design: method as in Kolkhof & Borden 2012; details: mice; ref Kolkhof & Borden 2012; cited from earlier work
[15] = test system: aldosterone-induced cardiac necrosis; design: method as in Selye 1960; details: rats; ref Selye 1960; cited from earlier work
[16] = design: method as in Pitt et al. 1999; details: low dose on top of standard of care; ref Pitt et al. 1999; cited from earlier work
rats = details: cited from earlier work
[17] = ref Karim 1978, Garthwaite & McMahon 2004
[18] = single oral dose 50 mg, healthy subjects, ref Thosar et al. 2003

SMILES: CS[C@H]1[C@@H]2[C@H](CC[C@@]3(C)[C@H]2CC[C@@]32CCC(=O)O2)[C@@]2(C)CCC(=O)C=C2[C@@H]1O [HTMS, 6β-hydroxy-7α-thiomethyl-spironolactone]
- mean half-life of spironolactone metabolite [1, 17]: 15.0 h
- peak absolute plasma concentration ([1]; ref Gardiner et al. 1989): 125 ng/mL
- peak relative plasma concentration ([1]; ref Gardiner et al. 1989): 16.1%

SMILES: CC(=O)[C@H]1CC[C@H]2[C@@H]3CCC4=CC(=O)CC[C@]4(C)[C@H]3CC[C@]12C [Progesterone]
- effect on S810L MR mutant (S810L MR mutant): paradoxically activate

SMILES: C[C@]12CCC(=O)C=C1[C@@H]1C[C@@H]1[C@H]1[C@@H]3[C@@H]4C[C@@H]4[C@@]4(CCC(=O)O4)[C@@]3(C)CC[C@@H]12 [drospirenone, 1,2-dihydro-spirorenone]
- potency relative to spironolactone on the MR in rats (MR): eight times more potent

SMILES: COC(=O)[C@@H]1CC2=CC(=O)CC[C@]2(C)[C@@]23O[C@@H]2C[C@@]2(C)[C@@H](CC[C@@]24CCC(=O)O4)[C@H]13 [eplerenone, 9-11α-epoxymexrenone]
- IC50 (human MR): 970 nM
- bound fraction (plasma proteins) (human plasma proteins; ref Inspra Prescribing Information 2002): about 50%
- natriuretic activity vs spironolactone [2]: rough equi-efficacy
- efficacy compared to 50 mg spironolactone twice daily [3]: 50–75%
- active metabolites ([4]; ref Kolkhof & Borden 2012): no active metabolites
- duration of natriuretic effect [4, 18]: ~ 10 h
- half-life [4, 18]: 2.9 h
- half-life ([4]; steady state after multiple doses of 100 mg, ref Cook et al. 2003): 4 h
- cardiorenal protection [5]: only partial cardiorenal protection
- effect on S810L MR mutant (S810L MR mutant): paradoxically activate
- accumulation of drug equivalent concentration in kidneys compared with heart tissue [6]: ≥ 3 fold
- incidence of serious hyperkalemia (≥6 mmol/L) vs placebo ([7]; P = 0.002): significantly higher
- primary endpoint, death from any cause or hospitalization for CV events ([7]; vs placebo, mean follow-up 16 months): significantly reduced

SMILES: Cc1c(C(=O)Nc2ccc(S(C)(=O)=O)cc2)cn(CCO)c1-c1ccccc1C(F)(F)F [esaxerenone, (5S)-1-(2-hydroxyethyl)-4-methyl-N-[4-(methylsulfonyl)phenyl]-5-[2-(trifluoromethyl)phenyl]-1H-pyrrole-3-carboxamide]
- IC50 (human MR): 3.7 nM
- selectivity for MR over other steroid hormone receptors [8]: ≥ 1000 fold
- antihypertensive activity vs spironolactone or eplerenone (DOCA/salt-loading rats; DOCA/salt-loading rats, ref Arai et al. 2015a): more pronounced antihypertensive activity
- effect on hypertension and renal injury in DOCA rats (DOCA/salt-loading rats; ref Arai et al. 2016): not only prevented but also ameliorated
- antihypertensive effect ([5]; chronic treatment, 0.5 mg/kg equivalent to spironolactone or eplerenone 100 mg/kg): dose-dependent antihypertensive effect
- reduction of proteinuria and renal hypertrophy, potency vs spironolactone and eplerenone [5]: superior potency

SMILES: CC(=O)S[C@@H]1CC2=CC(=O)C=C[C@]2(C)[C@H]2CC[C@@]3(C)[C@@H]([C@@H]4C[C@@H]4[C@@]34CCC(=O)O4)[C@H]12 [mespirenone, 15β,16β-methylene-spironolactone]
- natriuretic potency relative to spironolactone ([9]; healthy volunteers, ref Losert et al. 1986): 6 fold

SMILES: CS[C@@H]1CC2=CC(=O)CC[C@]2(C)[C@H]2CC[C@@]3(C)[C@@H](CC[C@@]34CCC(=O)O4)[C@H]12 [TMS, 7α-thiomethyl-spironolactone]
- mean half-life of spironolactone metabolite [1, 17]: 13.8 h
- peak absolute plasma concentration ([1]; ref Gardiner et al. 1989): 391 ng/mL
- peak relative plasma concentration ([1]; ref Gardiner et al. 1989): 50.3%

SMILES: C[C@]12CC[C@H]3[C@@H](CCC4=CC(=O)CC[C@@H]43)[C@@H]1CC[C@@]21CCC(=O)O1 [SC-8109]
- potency on mineralocorticoid-dependent sodium retention relative to SC-5233 ([10]; adrenalectomized rats, ref Kagawa et al. 1957): more potent than SC-5233
- in vivo progestational activity [11]: substantial in vivo progestational activity

SMILES: C[C@]12CCC(=O)C=C1C=C[C@@H]1[C@@H]2CC[C@@]2(C)[C@H]1CC[C@@]21CCC(=O)O1 [canrenone]
- mean half-life of spironolactone metabolite [1, 17]: 16.5 h
- canrenone proportion of metabolites after spironolactone ([1]; multiple doses, ref Gardiner et al. 1989): about 23%
- canrenone proportion of metabolites after spironolactone ([1]; single dose, ref Merkus et al. 1983): about 15%
- peak absolute plasma concentration ([1]; ref Gardiner et al. 1989): 181 ng/mL
- peak relative plasma concentration ([1]; ref Gardiner et al. 1989): 23.3%

SMILES: C[C@]12CCC(=O)C=C1CC[C@@H]1[C@@H]2CC[C@@]2(C)[C@H]1CC[C@@]21CCC(=O)O1 [SC-5233, 3-(3-oxo-17β-hydroxy-4-androsten-17α-yl)propionic acid γ-lactone]
- antagonistic efficacy in mineralocorticoid-dependent models ([10]; strictly dependent on presence of a mineralocorticoid, ref Kagawa et al. 1959): convincing antagonistic efficacy
- natriuretic activity in patients [12]: natriuretic activity
- in vivo progestational activity [11]: substantial in vivo progestational activity

SMILES: C[C@]12C=CC(=O)C=C1[C@@H]1C[C@@H]1[C@H]1[C@@H]3[C@@H]4C[C@@H]4[C@@]4(CCC(=O)O4)[C@@]3(C)CC[C@@H]12 [spirorenone]
- in vivo activity on urinary Na+/K+ ratio relative to spironolactone (urinary Na+/K+ ratio): 8.6 times
- affinity for rat renal cytoplasmatic MR relative to spironolactone [13]: 0.73 times
- affinity for the rat androgen receptor (rat androgen receptor): practically no affinity
- affinity for the progesterone receptor vs spironolactone (progesterone receptor): higher affinity
- potency relative to spironolactone, urinary sodium excretion ([9]; single dose, healthy individuals, ref Seifert et al. 1982): at least 4 times

SMILES: C[C@]12CCC(=O)C=C1[C@@H]1C[C@@H]1[C@@H]1[C@@H]2CC[C@@]2(C)[C@H]1CC[C@@]21CCC(=O)O1 [prorenone]
- effect on nuclear translocation of the aldosterone receptor (aldosterone receptor): blocks nuclear translocation

SMILES: CC(=O)S[C@@H]1CC2=CC(=O)CC[C@]2(C)[C@H]2CC[C@@]3(C)[C@@H](CC[C@@]34CCC(=O)O4)[C@H]12 [spironolactone, 7α-acetylthio-17α-hydroxy-3-oxopregn-4-ene-21-carboxylic acid γ-lactone]
- plasma half-life [1, 17]: less than 2 h
- tumorigenic or carcinogenic potential in chronic dog and monkey studies (dogs and monkeys): no tumorigenic or carcinogenic potential
- bound to human plasma proteins (human plasma proteins; ref Chien et al. 1976): 94%
- cardiorenal protection [5]: only partial cardiorenal protection
- effect on S810L MR mutant (S810L MR mutant): paradoxically activate
- whole radioactivity in cardiac tissue [14]: below the detection limit
- protection from aldosterone-induced cardiac necrosis [15]: protected
- mortality in severe heart failure [16]: mortality reduction
- tumor finding, 104-week rat study (rats; 10, 30 and 100 mg/kg/day, ref Aldactone NDA 2008): significant increases in hepatocellular adenomas and benign testicular and thyroid adenomas
- tumor finding, 78-week rat study (rats; male rats, 500 mg/kg, 78 weeks, ref Mayer et al. 1988): increased numbers of benign testicular adenomas
- finding in chronic toxicity studies in rats (rats; rat, in vivo): tumorigenic
